Test results reported in PubChem BioAssay AID1963443 (Molecular Pharmacology Branch, DTP, NCI, 2024).
Each block holds one compound with its values, some of them ahead of it.

Test system: MDA-MB-231 complex spheroids, growth inhibition
Experiment: Anticancer human tumor MDA-MB-231 cell line growth inhibition [Asc];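 further: spheroids exposed to compounds for 7 days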
Settings: for IC50: curve of first compound; for viability, T/C: stronger effect = lower value
Summary of the method: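 Complex spheroids combining tumor cells with HUVEC endothelial cells and human MSCs, at 37 degrees C, 5% CO2; agents tested alone or combined, half-log dilutions from at or near clinical Cmax, or 10 microM if Cmax unknown.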

IC50 (second compound 0.1 µM): > 10000 nM | IC50 (second compound 0.316 µM): 7530 nM | IC50 (second compound 1 µM): 4700 nM | IC50 (second compound 3.16 µM): 3260 nM | IC50 (second compound 10 µM): 3280 nM
Structure (SMILES): C#Cc1c(F)ccc2cc(O)cc(-c3ncc4c(N5CC6CCC(C5)N6)nc(OCC56CCCN5CC(F)C6)nc4c3F)c12 (stereo not given) + Cc1c(S(C)(=O)=O)c(-c2cc(F)cc(N3CCN(c4ccc(NS(=O)(=O)c5ccc(NC(CCN6CCC(C(=O)OCCCP(=O)(O)O)CC6)CSc6ccccc6)c(S(=O)(=O)C(F)(F)F)c5)cc4)CC3)c2)c(-c2ccc(Cl)cc2)n1C(C)C
viability, T/C (second compound 0.1 µM, first compound 0.0316 µM): 96.6% | viability, T/C (second compound 0.1 µM, first compound 0.1 µM): 103% | viability, T/C (second compound 0.1 µM, first compound 0.316 µM): 95.6% | viability, T/C (second compound 0.1 µM, first compound 1 µM): 73.6% | viability, T/C (second compound 0.1 µM, first compound 3.16 µM): 68.7% | viability, T/C (second compound 0.1 µM, first compound 10 µM): 50.7% | viability, T/C (second compound 0.316 µM, first compound 0.0316 µM): 105% | viability, T/C (second compound 0.316 µM, first compound 0.1 µM): 104% | viability, T/C (second compound 0.316 µM, first compound 0.316 µM): 98.3% | viability, T/C (second compound 0.316 µM, first compound 1 µM): 76.6% | viability, T/C (second compound 0.316 µM, first compound 3.16 µM): 63.4% | viability, T/C (second compound 0.316 µM, first compound 10 µM): 45.5% | viability, T/C (second compound 1 µM, first compound 0.0316 µM): 102% | viability, T/C (second compound 1 µM, first compound 0.1 µM): 96.8% | viability, T/C (second compound 1 µM, first compound 0.316 µM): 101% | viability, T/C (second compound 1 µM, first compound 1 µM): 74.2% | viability, T/C (second compound 1 µM, first compound 3.16 µM): 59.6% | viability, T/C (second compound 1 µM, first compound 10 µM): 36.1% | viability, T/C (second compound 3.16 µM, first compound 0.0316 µM): 93.3% | viability, T/C (second compound 3.16 µM, first compound 0.1 µM): 94.6% | viability, T/C (second compound 3.16 µM, first compound 0.316 µM): 97.7% | viability, T/C (second compound 3.16 µM, first compound 1 µM): 72.2% | viability, T/C (second compound 3.16 µM, first compound 3.16 µM): 52.9% | viability, T/C (second compound 3.16 µM, first compound 10 µM): 23.3% | viability, T/C (second compound 10 µM, first compound 0.0316 µM): 97.2% | viability, T/C (second compound 10 µM, first compound 0.1 µM): 97.2% | viability, T/C (second compound 10 µM, first compound 0.316 µM): 99% | viability, T/C (second compound 10 µM, first compound 1 µM): 89.5% | viability, T/C (second compound 10 µM, first compound 3.16 µM): 51.3% | viability, T/C (second compound 10 µM, first compound 10 µM): 12.7%

IC50 (second compound 0.1 µM): 201 nM | IC50 (second compound 0.316 µM): 249 nM | IC50 (second compound 1 µM): 179 nM | IC50 (second compound 3.16 µM): 162 nM | IC50 (second compound 10 µM): 162 nM
Structure (SMILES): Cc1nc(N2CCC3(CC2)COC(C)C3N)c(CO)nc1Sc1ccnc(N)c1Cl (stereo not given) + Cc1c(S(C)(=O)=O)c(-c2cc(F)cc(N3CCN(c4ccc(NS(=O)(=O)c5ccc(NC(CCN6CCC(C(=O)OCCCP(=O)(O)O)CC6)CSc6ccccc6)c(S(=O)(=O)C(F)(F)F)c5)cc4)CC3)c2)c(-c2ccc(Cl)cc2)n1C(C)C
viability, T/C (second compound 0.1 µM, first compound 0.00949 µM): 97.2% | viability, T/C (second compound 0.1 µM, first compound 0.03 µM): 90.9% | viability, T/C (second compound 0.1 µM, first compound 0.0949 µM): 76.8% | viability, T/C (second compound 0.1 µM, first compound 0.3 µM): 37% | viability, T/C (second compound 0.1 µM, first compound 0.949 µM): 1.43% | viability, T/C (second compound 0.1 µM, first compound 3 µM): 0.95% | viability, T/C (second compound 0.316 µM, first compound 0.00949 µM): 108% | viability, T/C (second compound 0.316 µM, first compound 0.03 µM): 99.8% | viability, T/C (second compound 0.316 µM, first compound 0.0949 µM): 88.9% | viability, T/C (second compound 0.316 µM, first compound 0.3 µM): 44.1% | viability, T/C (second compound 0.316 µM, first compound 0.949 µM): 1.42% | viability, T/C (second compound 0.316 µM, first compound 3 µM): 1.39% | viability, T/C (second compound 1 µM, first compound 0.00949 µM): 102% | viability, T/C (second compound 1 µM, first compound 0.03 µM): 94% | viability, T/C (second compound 1 µM, first compound 0.0949 µM): 81.6% | viability, T/C (second compound 1 µM, first compound 0.3 µM): 24.7% | viability, T/C (second compound 1 µM, first compound 0.949 µM): 0.73% | viability, T/C (second compound 1 µM, first compound 3 µM): 1.11% | viability, T/C (second compound 3.16 µM, first compound 0.00949 µM): 95.6% | viability, T/C (second compound 3.16 µM, first compound 0.03 µM): 93.4% | viability, T/C (second compound 3.16 µM, first compound 0.0949 µM): 78.7% | viability, T/C (second compound 3.16 µM, first compound 0.3 µM): 17% | viability, T/C (second compound 3.16 µM, first compound 0.949 µM): 1.15% | viability, T/C (second compound 3.16 µM, first compound 3 µM): 0.34% | viability, T/C (second compound 10 µM, first compound 0.00949 µM): 106% | viability, T/C (second compound 10 µM, first compound 0.03 µM): 103% | viability, T/C (second compound 10 µM, first compound 0.0949 µM): 82% | viability, T/C (second compound 10 µM, first compound 0.3 µM): 12.9% | viability, T/C (second compound 10 µM, first compound 0.949 µM): 0.64% | viability, T/C (second compound 10 µM, first compound 3 µM): 0.34%
